# According to US20080220416A1, “Compositions for Inhibiting Cell Growth and Inducing Apoptosis in Cancer Cells and Methods of Use Thereof” (THE BOARD OF TRUSTEES OF THE UNIVERSITY OF ILLINOI, priority 2004, published 2008):
# Square brackets hold non-standard residues; d marks the D form. Peptide text beside a SMILES is read from it. * marks the point of attachment. Nle = CCCC[C@H](N)C(=O)O; Cbz = O=C(OCc1ccccc1)*
# Key:
# NOXA [1] = experiment: Western blot of NOXA after proteasome inhibitors in melanoma cells; assay type: cell-based, human; details: RJ002L, C8161, MUM2B, 18 hrs
# Description: (§1) A panel of melanoma cells were used to assess the effect of bortezomib on pro-apoptotic proteins. RJ002L, C8161, MUM2B and SK-MeI-28 melanoma cells, as well as two normal melanocyte cultures (MC-010 and MC-012) were examined. Prior to testing, the RJ002L melanoma cell lines were maintained in RPMI supplemented with 10% FBS. Late passage melanoma cell lines (C8161, MUM2B and SK-Me1028) were utilized as previously described (Welch D et al., 1991, Int J Cancer 47:227-237; Bittner M et al., 2000, Nature 406:536-540). Normal human melanocytes were isolated from neonatal foreskins and cultured as previously described (Qin J et al., 2004, Mol Cancer Ther 3:895-902). Proliferating cells were examined by Western blot analysis before and after 18 hrs of exposure to bortezomib (1 μM). Antibodies were obtained as follows: Bad (SC-8044), Bcl-2 (SC-7382), Bcl-xL (SC-634), Mcl-1 (SC-819), Bak (SC-832) from Santa Cruz Biotechnology (Santa Cruz, Calif.); NOXA (OP180) from Calbiochem; Bid, Bim and PUMA from Cell Signaling (Beverly, Mass.); BAX from Upstate (Charlottesville, Va.); and β-actin from ICN (Irvine, Calif.). For the Western blot analysis, whole cell extracts were prepared as previously described (Denning M et al., 1998, J Biol Chem 273:29995-30002). Briefly, cells were harvested by scraping monolayers and washed with PBS. Cell pellets were resuspended in CHAPS buffers containing a protease inhibitor cocktail. Extracts were vigorously shaken at 4° C. for 15 min followed by centrifugation. Supernatants were collected and protein concentration determined using Bio-Rad reagent. Thirty to 50 microgram protein samples were resolved by SDS-polyacrylamide gel electrophoresis and transferred to polyvinylidene difluoride membrane by electroblotting. Membranes were probed with the various primary antibodies overnight at 4° C., followed by detection using ECL reagents (Amersham Pharmacia Biotech, Piscataway, N.J.) according to manufacturer's instructions.
# (§2) Two other proteasome inhibitors, lactasytsin and MG-132, were tested for the ability to induce NOXA in melanoma cells and melanocytes. […]
# NOXA [2] = experiment: Western blot of NOXA after proteasome inhibitors in normal melanocytes; assay type: cell-based, human; details: 18 hrs
# Description: as §1, §2
# C8161 melanoma cells = experiment: Proliferating versus serum-deprived C8161 melanoma cells, NOXA and apoptosis; assay type: cell-based, human; details: for NOXA induction: proliferating (10% FCS) or serum-deprived (no serum) C8161
# Procedure: C8161 melanoma cells were induced into a relatively quiescent state by serum withdrawal. Proliferation assays were conducted in the presence or absence of 10% fetal calf serum (FCS) by manual counting of melanoma cells in triplicate wells on days 0, 1, 2 and 3. […] By phase contrast microscopy, the withdrawal of FCS arrested the cells (data not shown). This growth arrest was confirmed by Western blots of the cells that were maintained as either rapidly proliferating cells in the presence of 10% FCS or were growth arrested by serum withdrawal and washing with PBS for either 1 or 2 days. Whole cell extracts were prepared and Western blot analysis was performed as described above in Example 8 using antibodies to NOXA, p21 (SC-817, Santa Cruz Biotechnology, Santa Cruz, Calif.) and β-actin as described here and above.
# Growth arrest induced by serum withdrawal was confirmed by induction of p21. […] Thus, not only can proteasome inhibitors selectively induce NOXA and kill melanoma cells and not kill melanocytes independent of p53, but melanoma cells are susceptible to killing even when maintained in a relatively quiescent state in vitro.
# [3] = tested on: CaSki human cervical cancer cells; experiment: Apoptosis of CaSki cells (Annexin V flow cytometry, caspase 3 Western blot); assay type: cell-based
# Procedure: For the apoptosis measurement assay, the transformed CaSki human cervical cancer cells were treated with DMSO, or 25 μM, 50 μM or 100 μM cisplatin for 24 hours. After cisplatin treatment, the cells were collected and stained with fluorescein-conjugated annexin V and propidium iodide, using the APO TARGET Annexin-V FITC Apoptosis Kit (BioSource International, Inc., Camarillo, Calif.) according to the manufacturer's instructions. After the staining, the cells were sorted by flow cytometry with a FACScan instrument (Becton-Dickinson), Annexin-V positive stained cells were counted as apoptotic cells. Cells that were propidium iodide positive but annexin V negative were not counted as apoptotic cells.
# To determine whether z-Leu-Leu-Nle-CHO induces cell death via apoptosis, CaSki cells were treated with various concentrations of z-Leu-Leu-Nle-CHO for 18 h and then either stained with Annexin-V-FITC as described above, or subject to Western blot analysis using antibody to both the pro-enzyme and active form of caspase-3 (Santa Cruz Biotechnology, Santa Cruz, Calif.) as described above.
compound,measurement,setting,value
"CC(C)C[C@H](NC(=O)[C@H](Cc1ccccc1)NC(=O)c1cnccn1)B(O)O [bortezomib, N-(2-pyrazine)carbonyl-L-phenylalanine-L-leucine boronic acid]",induction of BH3-only proteins,"NOXA [1]; SK-MeI-28, 1 μM",only NOXA was consistently induced in all four melanoma cells
same,NOXA induction,"NOXA [2]; MC-010, MC-012, 1 μM",did not exhibit NOXA induction
same,NOXA induction,C8161 melanoma cells,trigger prominent NOXA induction
same,cell death by apoptosis in serum-deprived cells,C8161 melanoma cells; serum-deprived versus proliferating C8161,comparable to that seen in bortezomib-treated proliferating melanoma cells
"CCCC[C@@H](C=O)NC(=O)[C@H](CC(C)C)NC(=O)[C@H](CC(C)C)NC(=O)OCc1ccccc1 [z-Leu-Leu-Nle-CHO, N-benzyloxycarbonyl-leucyl-leucyl-norleucinal] (Cbz-Leu-Leu-[Nle]-aldehyde)",caspase 3 activation,[3]; 18 h,dose-dependent caspase 3 activation
same,mode of cell death (Annexin V flow cytometry),[3]; 18 h,primarily apoptotic
5′-AAGTGTCTGAGGCCAGCAAGA-3′ [Notch-1 siRNA],effect on cisplatin-induced apoptosis,"[3]; cisplatin 25, 50 or 100 μM for 24 hours",significantly enhances cisplatin-induced apoptosis
"CC(C)C[C@@H](C=O)NC(=O)[C@H](CC(C)C)NC(=O)[C@H](CC(C)C)NC(=O)OCc1ccccc1 [MG-132, benzoxycarbonyl-Leucyl-Leucyl-Leucyl-aldehyde] (Cbz-Leu-Leu-Leu-aldehyde)",NOXA induction,NOXA [1]; 1 μM or 10 μM,induced high NOXA levels
same,NOXA induction,"NOXA [2]; MC-004, MC-005, MC-006, MC-008, 1 μM or 10 μM",no induction of NOXA in any of the normal melanocytes
same,NOXA induction,C8161 melanoma cells,trigger prominent NOXA induction
